Some results are limits rather than exact numbers.

The term MIC denotes the least concentration at which growth counts as inhibited.

One data set has as its system Burkholderia cepacia. In words: Minimum inhibitory concentration, IPBC and butoxydiglycol in protein shampoo (Example 4). It counts as cell-based. The procedure:
Sample protein shampoos I, J and K were formed. Sample I contained only IPBC. Sample J contained only butoxydiglycol. Sample K contained both IPBC and butoxydiglycol. […] Synergism for the IPBC/butoxydiglycol studies in Table 5 was calculated by the method described in C. E. Kull et al., “Mixtures of Quaternary Ammonium Compounds and Long-Chain Fatty Acids as Antifungal Agents”, Applied Microbiology, 4:538-541(1961). The Kull method determines the quantity of each component in a mixture which is required to reach a given microbiological endpoint (e.g., MIC), and compares that amount with the quantity of the pure component necessary to reach the same endpoint. According to this method, a synergism index or value QA/QB+Qa/Qb is determined, wherein: […]

For data set [1], the system named is mixed bacteria, comprising E. coli (ATCC 8739), P. aeruginosa (ATCC 9027), and S. aureus (ATCC 6538). In words: Inhibition of mixed bacteria by propynyl compound solutions in protein shampoo (Example 2). The settings on record: Table 3, 500 ppm in protein shampoo (GPL 1000 ppm), solvent butoxydiglycol (A, E) or butylene glycol (B, C, D). Format: cell-based. As to the method: (§1) Each of the samples A to E is a protein shampoo comprising a propynyl compound. The samples were tested for antibacterial and antifungal properties by testing for inhibition of a mixed bacteria, comprising E. coli (ATCC 8739), P. aeruginosa (ATCC 9027), and S. aureus (ATCC 6538), and inhibition of a mixed fungi, comprising A. niger (ATCC 16404) and C. albicans (ATCC 10231).
(§2) The samples “GPL” and “NP” are controls. “GPL” is 0. 1% Glydantg Plus, a liquid antimicrobial preservative available from Lonza Inc., Fair Lawn, N.J., containing a dimethyol dimethyl hydantoin formaldehyde donor. Glydant® Plus is used in personal care formulations in cosmetics and personal care products.
(§3) In Table 3, samples A and E consist of an iodopropynyl compound in a butoxydiglycol solvent. Samples C and D consist of an iodopropynyl compound in a butylene glycol solvent, and Sample B consists of a propynyl compound in a butylene glycol solvent.

For the next data set, the system named is Bacteria. In words: Antibacterial screening of propynyl compositions in protein shampoo formulations (Example 3). Format: cell-based. Conditions: Table 4, 500 ppm in protein shampoo pH 7.0 (GPL 1000 ppm), solvent butoxydiglycol (A, H) or butylene glycol (F, G). The source says:
(§4) Samples of a standard protein shampoo (pH-7.0) were formed. The shampoo contained the following preservative-free ingredients, w/w % Samples A, […] and H contained active preservative iodopropynyl agents in a solvent. Samples A and H contained butoxydiglycol as the solvent. Samples F and G (containing a propynyl compound rather than a halopropynyl compound) contained butylene glycol as the solvent.

Data set [2] can be described thus: Solubility testing of propynyl compounds in solvents. The settings on record: for Solubility in Butanediol Anhydrous: solvent Butanediol Anhydrous; for Solubility in Butoxydiglycol: solvent Butoxydiglycol; for Solubility in Sorbitol: solvent Sorbitol. Format: physicochemical. An excerpt: The compounds used in Example 1 are identified below in Table 1. The results of the solubility testing is shown below in Table 2.

The test system of data set [3] is mixed fungi, comprising A. niger (ATCC 16404) and C. albicans (ATCC 10231). Description: Inhibition of mixed fungi by propynyl compound solutions in protein shampoo (Example 2). Format: cell-based. Conditions: Table 3, 500 ppm in protein shampoo (GPL 1000 ppm), solvent butoxydiglycol (A, E) or butylene glycol (B, C, D). The procedure: as §1, §2, §3
A further data set has as its system Fungi. Description: Antifungal screening of propynyl compositions in protein shampoo formulations (Example 3). It counts as cell-based. The settings on record: Table 4, 500 ppm in protein shampoo pH 7.0 (GPL 1000 ppm), solvent butoxydiglycol (A, H) or butylene glycol (F, G).
From the text: as §4

With `CCCCNC(=O)OCC#CI` [IPBC, 3-iodo-2-propynyl butyl carbamate], the “Concentration (ppm) QA” value in the data set with Burkholderia cepacia (Table 6, parameter MIC) is listed as 1,250 ppm. For the same compound, the “MIC, ppm active” value in the data set on Burkholderia cepacia (single active alone in protein shampoo, complete inhibition of growth) is given as 1,250 ppm.
As to `O=c1c(Cl)cn(CC#CI)c(=O)n1CC#CI` [Compound L58, 1N,3N-Diiodopropyn-2-yl-5-chlorouracil], in data set [1], the “DAY 0 Bacteria (cfu/ml)” value is recorded as 8.00 × 10^6 cfu/ml, the “DAY 14 Bacteria (cfu/ml)” value is reported as below 10 cfu/ml and the “DAY 28 Bacteria (cfu/ml)” value is listed as below 10 cfu/ml. For the same compound, in the data set on Bacteria, the “DAY 0 Bacteria (cfu/ml)” value is recorded as 9.00 × 10^6 cfu/ml, the “DAY 14 Bacteria (cfu/ml)” value is below 10 cfu/ml and the “DAY 28 Bacteria (cfu/ml)” value is below 10 cfu/ml. Also, in data set [2], the “Solubility in Butanediol Anhydrous” value was “−” and the “Solubility in Butoxydiglycol” value is on record as “+”. In addition, in data set [3], the “DAY 0 Fungi (cfu/ml)” value is given as 1.00 × 10^5 cfu/ml, the “DAY 14 Fungi (cfu/ml)” value is on record as below 10 cfu/ml and the “DAY 28 Fungi (cfu/ml)” value is below 10 cfu/ml. In the data set on Fungi, the “DAY 0 Fungi (cfu/ml)” value is 1.00 × 10^5 cfu/ml, the “DAY 14 Fungi (cfu/ml)” value was below 10 cfu/ml and the “DAY 28 Fungi (cfu/ml)” value is on record as below 10 cfu/ml.
For `O=C(O)CCOCC#CI` [Compound L111, Iodopropynyloxypropionic Acid], in the data set with Bacteria, the “DAY 0 Bacteria (cfu/ml)” value is listed as 8.00 × 10^6 cfu/ml, the “DAY 14 Bacteria (cfu/ml)” value is reported as below 10 cfu/ml and the “DAY 28 Bacteria (cfu/ml)” value is below 10 cfu/ml. Moreover, in the data set on Fungi, the “DAY 0 Fungi (cfu/ml)” value is 8.00 × 10^6 cfu/ml, the “DAY 14 Fungi (cfu/ml)” value is given as below 10 cfu/ml and the “DAY 28 Fungi (cfu/ml)” value was below 10 cfu/ml.
In the case of `CCCCOCCOCCO` [Butoxydiglycol, 2-(2-butoxyethoxy)ethanol], in the data set on Burkholderia cepacia (Burkholderia cepacia, single active alone in protein shampoo, complete inhibition of growth, read-out: MIC, ppm active), the MIC was found to be 12.5 mg/mL. Moreover, the “Concentration (ppm) QB” value in the data set on Burkholderia cepacia (Table 6, parameter MIC) is recorded as 12,500 ppm.
Regarding `OC(C#CI)c1ccc(Cl)s1` (centres unmarked) [Compound L100], in the data set with Bacteria, the “DAY 0 Bacteria (cfu/ml)” value was 8.00 × 10^6 cfu/ml, the “DAY 14 Bacteria (cfu/ml)” value was 2.00 × 10^1 cfu/ml and the “DAY 28 Bacteria (cfu/ml)” value is given as 200 cfu/ml. In the data set on Fungi, the “DAY 0 Fungi (cfu/ml)” value is 1.00 × 10^5 cfu/ml, the “DAY 14 Fungi (cfu/ml)” value is recorded as below 10 cfu/ml and the “DAY 28 Fungi (cfu/ml)” value is listed as below 10 cfu/ml.
On to `C#CC(=O)c1ccc(C#N)cc1` [Compound L106, 1-(4-cyanophenyl)-2-propyn-1-one], for which, in the data set with Bacteria, the “DAY 0 Bacteria (cfu/ml)” value is on record as 8.00 × 10^6 cfu/ml, the “DAY 14 Bacteria (cfu/ml)” value is reported as >1.0 × 10^4 cfu/ml and the “DAY 28 Bacteria (cfu/ml)” value is reported as below 10 cfu/ml. In addition, in data set [2], the “Solubility in Butanediol Anhydrous” value is on record as “+”, the “Solubility in Butoxydiglycol” value is given as “+” and the “Solubility in Sorbitol” value is given as “−”. In the data set on Fungi, the “DAY 0 Fungi (cfu/ml)” value was 1.00 × 10^5 cfu/ml, the “DAY 14 Fungi (cfu/ml)” value is on record as >1.0 × 10^3 cfu/ml and the “DAY 28 Fungi (cfu/ml)” value came out at 100 cfu/ml.
With `OC(C#CI)c1cccs1` (centres unmarked) [Compound L90, 2-(3-iodo-2-propyn-1-ol-yl) thiophene], in data set [1], the “DAY 0 Bacteria (cfu/ml)” value is 7.00 × 10^6 cfu/ml, the “DAY 14 Bacteria (cfu/ml)” value was >3.0 × 10^3 cfu/ml and the “DAY 28 Bacteria (cfu/ml)” value is given as >10^3 cfu/ml. In data set [2], the “Solubility in Butanediol Anhydrous” value was “+”, the “Solubility in Butoxydiglycol” value is listed as “+” and the “Solubility in Sorbitol” value was “−”. In data set [3], the “DAY 0 Fungi (cfu/ml)” value was 1.00 × 10^5 cfu/ml, the “DAY 14 Fungi (cfu/ml)” value is on record as below 10 cfu/ml and the “DAY 28 Fungi (cfu/ml)” value is >10^3 cfu/ml.
For `Cc1ccc(C(Cn2ccnc2)OCC#CI)cc1` (centres unmarked) [Compound L103, 2-(1-imidazolyl)-1-(4-methylphenyl)ethyl iodopropargyl ether], in data set [1], the “DAY 0 Bacteria (cfu/ml)” value is 7.00 × 10^6 cfu/ml, the “DAY 14 Bacteria (cfu/ml)” value was below 10 cfu/ml and the “DAY 28 Bacteria (cfu/ml)” value is below 10 cfu/ml. Moreover, in data set [2], the “Solubility in Butanediol Anhydrous” value is reported as “−”, the “Solubility in Butoxydiglycol” value is on record as “+” and the “Solubility in Sorbitol” value is given as “−”. For the same compound, in data set [3], the “DAY 0 Fungi (cfu/ml)” value is on record as 1.00 × 10^5 cfu/ml, the “DAY 14 Fungi (cfu/ml)” value is given as 500 cfu/ml and the “DAY 28 Fungi (cfu/ml)” value is 400 cfu/ml.
Regarding `O=C(C#CI)c1ccc(C(F)(F)F)cc1` [Compound L74, 3-iodo-1-(4-trifluoromethylphenyl)-2-propyn-1-one], in data set [1], the “DAY 0 Bacteria (cfu/ml)” value is 8.00 × 10^6 cfu/ml, the “DAY 14 Bacteria (cfu/ml)” value was >3.0 × 10^3 cfu/ml and the “DAY 28 Bacteria (cfu/ml)” value is given as >10^3 cfu/ml. Also, in data set [2], the “Solubility in Butanediol Anhydrous” value was “+” and the “Solubility in Butoxydiglycol” value is on record as “+”. For the same compound, in data set [3], the “DAY 0 Fungi (cfu/ml)” value is 1.00 × 10^5 cfu/ml, the “DAY 14 Fungi (cfu/ml)” value is listed as below 10 cfu/ml and the “DAY 28 Fungi (cfu/ml)” value is reported as >10^3 cfu/ml.

The record behind these values is US20030039580A1, “Stable preservative formulations comprising halopropynyl compounds and butoxydiglycol solvent” (Lonza Inc., priority 2001, published 2003).
